Source: ChEMBL document CHEMBL4689842, “EUbOPEN Chemogenomics Library wave 1” (2021)

How the values were obtained:
Format in all cases: toxicity, cell-based
HEK-293T = assay: Incucyte cell viability with HEK293T; conditions: human, 10 µM, compound concentration 10 uM
U2OS = assay: Incucyte cell viability with U2OS; conditions: human, 10 µM, compound concentration 10 uM
Fibroblast = assay: Incucyte cell viability with human fibroblast; conditions: 10 µM, compound concentration 10 uM
[1] = 0 h, replicate number 1, timepoint 0 hours
[2] = 0 h, replicate number 2, timepoint 0 hours
[3] = 6 h, replicate number 1, timepoint 6 hours
[4] = 12 h, replicate number 1, timepoint 12 hours
[5] = 18 h, replicate number 1, timepoint 18 hours
[6] = 24 h, replicate number 1, timepoint 24 hours
[7] = 6 h, replicate number 2, timepoint 6 hours
[8] = 18 h, replicate number 2, timepoint 18 hours
[9] = 24 h, replicate number 2, timepoint 24 hours
[10] = 12 h, replicate number 2, timepoint 12 hours
Further: filed as whole numbers so only -1 and 0 and 1 occur.

Row | Structure (SMILES) | Growth Rate (HEK-293T; [1]) | Growth Rate (HEK-293T; [2]) | Growth Rate (HEK-293T; [3]) | Growth Rate (HEK-293T; [4]) | Growth Rate (HEK-293T; [5]) | Growth Rate (HEK-293T; [6]) | Growth Rate (U2OS; [1]) | Growth Rate (U2OS; [3]) | Growth Rate (U2OS; [4]) | Growth Rate (U2OS; [5]) | Growth Rate (U2OS; [6]) | Growth Rate (Fibroblast; [1]) | Growth Rate (Fibroblast; [3]) | Growth Rate (Fibroblast; [7]) | Growth Rate (Fibroblast; [4]) | Growth Rate (Fibroblast; [5]) | Growth Rate (Fibroblast; [8]) | Growth Rate (Fibroblast; [6]) | Growth Rate (Fibroblast; [9]) | Growth Rate (U2OS; [8]) | also measured
1 | Cc1nnc2c3ccccc3c(N[C@@H](C)[C@H](c3ccccc3)N(C)C)nn12 | 0 | 1 | 0 | 0 | 0 | 0 | 0 | 0 | 1 | 1 | 1 | 0 | 1 | 0 | 1 | 1 | 0 | 1 | 0 |  | Growth Rate (U2OS; [7]): 1
2 | Cn1cc(CCn2cnc(-c3cnn(C)c3)c2-c2ccc(C#N)cc2)cn1 | 1 |  |  |  | 1 | 1 | 1 | 1 | 1 | 1 | 1 |  | 0 | 1 | 1 | 1 | 0 | 1 | 0 | 0 | Growth Rate (HEK-293T; [7]): 1; Growth Rate (HEK-293T; [10]): 1; Growth Rate (U2OS; [2]): 0; Growth Rate (Fibroblast; [2]): 0
3 | CC(C)c1onc(-c2c(Cl)cccc2Cl)c1COc1ccc(/C=C/c2cccc(C(=O)O)c2)c(Cl)c1 | 0 |  | 1 | 0 | 0 | 0 | 0 |  | 1 | 1 | 1 | 0 | 1 |  | 1 | 0 | 1 | 0 | 1 |  | Growth Rate (HEK-293T; [10]): 1; Growth Rate (Fibroblast; [2]): 1
4 | CCCCN(CCCC)C(=O)CN1C[C@H](c2cc(OC)c3c(c2)OCO3)[C@@H](C(=O)O)[C@@H]1CC(C)(C)CCC.Cc1ccc(S(=O)(=O)O)cc1 | 0 |  | 1 | 1 | 1 | 1 | 0 | 0 | 1 | 0 | 1 | 0 | 1 |  | 1 | 1 |  | 0 | 1 | 1 | Growth Rate (HEK-293T; [7]): 0; Growth Rate (HEK-293T; [10]): 0; Growth Rate (HEK-293T; [8]): 0; Growth Rate (HEK-293T; [9]): 0
5 | FC(F)(F)c1cccc(-c2noc(-c3cc(-c4ccccc4)c(C(F)(F)F)s3)n2)c1 | 1 | 0 | 0 | 0 | 0 | 0 | 1 | 1 | 1 | 1 | 1 | 0 |  | 0 | 1 | 1 |  | 1 | 0 | 0 | Growth Rate (U2OS; [2]): 0; Growth Rate (U2OS; [10]): 0
6 | Cc1oncc1C(=O)Nc1ccc(C(F)(F)F)cc1 [LEFLUNOMIDE] | 1 | 0 | 0 | 1 | 1 | 0 |  |  | 1 | 1 | 1 | 0 | 1 | 0 | 1 | 1 | 0 | 1 | 0 |  | Growth Rate (HEK-293T; [7]): 1; Growth Rate (HEK-293T; [8]): 0; Growth Rate (HEK-293T; [9]): 1; Growth Rate (U2OS; [2]): 0; Growth Rate (U2OS; [7]): 1; Growth Rate (Fibroblast; [10]): 0
7 | CCCCCNC(=O)NS(=O)(=O)c1cc([N+](=O)[O-])ccc1NC1CCCCC1 | 1 | 0 | 0 | 0 | 0 | 1 | 0 |  | 1 | 0 | 1 | 0 |  | 0 | 1 | 1 |  | 1 |  | 1 | Growth Rate (HEK-293T; [7]): 1; Growth Rate (HEK-293T; [10]): 1; Growth Rate (HEK-293T; [9]): 0; Growth Rate (U2OS; [7]): 1; Growth Rate (Fibroblast; [2]): 1; Growth Rate (Fibroblast; [10]): 0
8 | Cc1c(C(=O)O)cc(-c2ccc(C3CCNCC3)cc2)c2ccc(-c3ccc(C(F)(F)F)cc3)cc12.Cl |  | 0 | 0 | 0 | 0 | 0 | 0 |  | 1 | 0 | 0 | 0 | 0 | 1 | 0 | 0 |  | 0 |  | 1 | Growth Rate (U2OS; [9]): 1; Growth Rate (Fibroblast; [2]): 1
9 | COc1cc(N2CCC(N3CCN(C)CC3)CC2)ccc1Nc1ncc(Cl)c(Nc2ccccc2P(C)(C)=O)n1 [BRIGATINIB] |  |  | 0 | 0 | 1 | 1 | 0 | 0 | 0 | 0 | 0 | 1 | 0 |  | 0 | 0 |  | 0 |  |  | Growth Rate (HEK-293T; [9]): 0; Growth Rate (U2OS; [10]): 1
